Assay results: US8778957B2, “CGRP receptor antagonists” (Merck Sharp & Dohme Corp., priority 2009, dated 2014)

Target: recombinant human CL receptor/RAMP1 (Homo sapiens (Human), UniProt O60894+Q16602)
Test: Recombinant receptor binding assay (125I-hCGRP)
Conditions: membranes of HEK 293 cells expressing human CL receptor/RAMP1, 10 pM 125I-hCGRP
Description: RECOMBINANT RECEPTOR: Human CL receptor (Genbank accession number L76380) was subcloned into the expression vector pIREShyg2 (BD Biosciences Clontech) as a 5′NheI and 3′ PmeI fragment. Human RAMP 1 (Genbank accession number AJ001014) was subcloned into the expression vector pIRESpuro2 (BD Biosciences Clontech) as a 5′NheI and 3′NotI fragment. HEK 293 cells (human embryonic kidney cells; ATCC #CRL-1573) were cultured in DMEM with 4.5 g/L glucose, 1 mM sodium pyruvate and 2 mM glutamine supplemented with 10% fetal bovine serum (FBS), 100 units/mL penicillin and 100 μg/mL streptomycin, and maintained at 37° C. and 95% humidity. Cells were subcultured by treatment with 0.25% trypsin with 0.1% EDTA in HBSS. Stable cell line generation was accomplished by co-transfecting 10 μg of DNA with 30 μg Lipofectamine 2000 (Invitrogen) in 75 cm^2 flasks. CL receptor and RAMP1 expression constructs were co-transfected in equal amounts. Twenty-four hours after transfection the cells were diluted and selective medium (growth medium+300 μg/mL hygromycin and 1 μg/mL puromycin) was added the following day. A clonal cell line was generated by single cell deposition utilizing a FACS Vantage SE (Becton Dickinson). Growth medium was adjusted to 150 μg/mL hygromycin and 0.5 μg/mL puromycin for cell propagation.
RECOMBINANT RECEPTOR BINDING ASSAY: Cells expressing recombinant human CL receptor/RAMP1 were washed with PBS and harvested in harvest buffer containing 50 mM HEPES, 1 mM EDTA and Complete protease inhibitors (Roche). The cell suspension was disrupted with a laboratory homogenizer and centrifuged at 48,000 g to isolate membranes. The pellets were resuspended in harvest buffer plus 250 mM sucrose and stored at −70° C. For binding assays, 20 μg of membranes were incubated in 1 ml binding buffer (10 mM HEPES, pH 7.4, 5 mM MgCl2, and 0.2% BSA) for 3 hours at room temperature containing 10 pM ^125I-hCGRP (GE Healthcare) and antagonist. The assay was terminated by filtration through 96-well GFB glass fiber filter plates (PerkinElmer) that had been blocked with 0.05% polyethyleneimine. The filters were washed 3 times with ice-cold assay buffer (10 mM HEPES, pH 7.4 and 5 mM MgCl2). Scintillation fluid was added and the plates were counted on a Topeount (Packard). Non-specific binding was determined and the data analysis was carried out with the apparent dissociation constant (Ki) determined by using a non-linear least squares fitting the bound CPM data to the equation below:
[formula] Where Y is observed CPM bound, Ymax is total bound counts, Ymin is non specific bound counts, (Ymax−Ymin) is specific bound counts, % Imax is the maximum percent inhibition, % I min is the minimum percent inhibition, radiolabel is the probe, and the Kd is the apparent dissociation constant for the radioligand for the receptor as determined by Hot saturation experiments.

recombinant human CL receptor/RAMP1, sequence (Q16602 23-461): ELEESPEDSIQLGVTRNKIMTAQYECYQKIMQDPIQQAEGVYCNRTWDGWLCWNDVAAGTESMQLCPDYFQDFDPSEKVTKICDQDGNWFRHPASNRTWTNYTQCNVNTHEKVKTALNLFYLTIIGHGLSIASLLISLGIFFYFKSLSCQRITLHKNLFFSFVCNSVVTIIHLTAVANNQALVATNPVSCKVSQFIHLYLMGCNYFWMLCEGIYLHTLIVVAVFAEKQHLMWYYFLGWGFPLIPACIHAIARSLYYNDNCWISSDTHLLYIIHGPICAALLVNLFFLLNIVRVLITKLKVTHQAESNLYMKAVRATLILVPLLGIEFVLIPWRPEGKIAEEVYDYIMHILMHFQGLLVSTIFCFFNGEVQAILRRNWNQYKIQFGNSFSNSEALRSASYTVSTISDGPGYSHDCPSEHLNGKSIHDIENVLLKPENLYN
recombinant human CL receptor/RAMP1, sequence (O60894 27-148): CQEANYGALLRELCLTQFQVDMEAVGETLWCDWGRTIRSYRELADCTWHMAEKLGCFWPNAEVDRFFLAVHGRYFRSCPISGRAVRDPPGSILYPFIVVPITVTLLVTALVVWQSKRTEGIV

Row | Ki [nM] | SMILES
1 | 58 | CC(C)(C)OC(=O)N1CCN(Cc2ccc3cc4c(cc3n2)C[C@]2(C4)C(=O)Nc3ncccc32)CC1c1ccccc1 (stereo partly shown) [Example 61]
2 | 0.34 | O=C1NC2(CCCC2)CN(Cc2ccc3cc4c(cc3n2)C[C@]2(C4)C(=O)Nc3ncccc32)C1Cc1ccccc1 (stereo partly shown) [Example 87]
3 | 2.6 | O=C1NC2(CCCC2)CN(Cc2ccc3cc4c(cc3n2)C[C@]2(C4)C(=O)Nc3ncccc32)[C@@H]1Cc1ccccc1 [Example 88]
4 | 180 | O=C1Nc2ncccc2C12Cc1cc3ccc(CN4CCc5c([nH]c6ccccc56)C4)nc3cc1C2 (stereo not shown) [Example 45]
5 | 43 | O=C1NC2(CCCC2)CN(Cc2ccc3cc4c(cc3n2)C[C@]2(C4)C(=O)Nc3ncccc32)C1c1ccccc1 (stereo partly shown) [Example 69]
6 | 35 | CN1C(=O)NC(=O)[C@]12Cc1cc3ccc(CN4C(=O)C(C)(C)Nc5ccccc54)nc3cc1C2 [Example 8, (7R)-2-[(3,3-Dimethyl-2-oxo-3,4-dihydroquinoxalin-1(2H)-yl)methyl]-3′-methyl-6,8-dihydro-2′H,5′H-spiro[cyclopenta[g]quinoline-7,4′-imidazolidine]-2′,5′-dione]
7 | 17 | CC1(Cc2ccccc2)C(=O)NC2(CCCC2)CN1Cc1ccc2cc3c(cc2n1)C[C@]1(C3)C(=O)Nc2ncccc21 (stereo partly shown) [Example 95]
8 | 6.6 | O=C1Nc2ncccc2[C@@]12Cc1cc3ccc(CN4CCNCC4c4ccccc4)nc3cc1C2 (stereo partly shown) [Example 64]
9 | 3800 | CN1C(=O)NC(=O)C12Cc1cc3ccc(CN4CCC(Cc5ccccc5)CC4)nc3cc1C2 (racemic) [Example 7, (±)-2-[(4-Benzylpiperidin-1-yl)methyl]-3′-methyl-6,8-dihydro-2′H,5′H-spiro[cyclopenta[g]quinoline-7,4′-imidazolidine]-2′,5′-dione]
10 | 0.72 | O=C1N[C@H](Cc2ccccc2)CN(Cc2ccc3cc4c(cc3n2)C[C@]2(C4)C(=O)Nc3ncccc32)C1c1ccccc1 (stereo partly shown) [Example 84]
11 | 0.73 | O=C1Nc2ncccc2[C@@]12Cc1cc3ccc(CN4CCNCC4)nc3cc1C2 [Example 76]
12 | 15000 | O=C1CC2(CCN(Cc3ccc4cc5c(cc4n3)CC3(C5)C(=O)Nc4ncccc43)CC2)Oc2ccccc21 (stereo not shown) [Example 114]
13 | 0.77 | CC1(C)CN(Cc2ccc3cc4c(cc3n2)C[C@]2(C4)C(=O)Nc3ncccc32)[C@@H](Cc2ccccc2)C(=O)N1 [Example 3, (7S)-2-{[(2S)-2-Benzyl-5,5-dimethyl-3-oxopiperazin-1-yl]methyl}-6,8-dihydrospiro[cyclopenta[g]quinoline-7,3′-pyrrolo[2,3-b]pyridin]-2′(1′H)-one]
